Reference: patent publication US12419888B2, “Methods of treating elevated plasma cholesterol” (INSTITUT DE CARDIOLOGIE DE MONTREAL, priority 2020, dated 2025)

Test system: LDLR protein levels in HepG2 cells
Assay: Western blot analysis of relative LDLR protein levels in HepG2 cells after treatment
Type: cell-based, human
Conditions: HepG2 cells incubated overnight with compound, 0.2 μM to 20 μM
Procedure: Cell culture, treatments and cell viability assay. For phenotypic screening of PCSK9 modulators and/or LDLR small molecule inducers, human HepG2 cells were incubated overnight in conditioned media containing chemical compounds resuspended in DMSO at concentration ranging from 0.2 μM to 20 μM. […] Following incubation, media have been replaced and cells incubated for 4 h with 100 μL of phenol red-free DMEM containing 0.5 mg/mL of MTT (3-[4,5-dimethylthiazol-2-yl]-2,5-diphenyltetrazolium bromide; thiazolyl blue; catalog no. M5655, Sigma-Aldrich), following manufacturer's instructions.
Western Blot Analysis, Immunocytochemistry and LDLR Activity Assay. Following incubation, cells were washed three times in phosphate-buffered saline (PBS) and lysed in radioimmune precipitation assay buffer (50 mM Tris/HCl, pH 8.0, 1% (v/v) Nonidet P-40, 0.5% sodium deoxycholate, 150 mM NaCl, and 0.1% (v/v) SDS) supplemented with a complete protease inhibitor mixture (catalog no. 11 697 498 001, Roche Applied Science). Proteins were separated by SDS polyacrylamide gel electrophoresis, blotted on nitrocellulose membranes (Bio-Rad), blocked incubated with indicated antibodies as described (Poirier S, et al., Cell Rep, 2015). For immunocytochemistry analysis, cells were permeabilized or not with 0.1% Triton X-100/PBS for 10 min, and incubated with 150 mM glycine, blocked and incubated with indicated primary and secondary antibodies. Immunofluorescence analyses were performed with an Olympus FluoView FV10i confocal microscope (Poirier et al., Cell Rep. 2015; 13(10):2064-2071). For LDLR activity assay, HepG2 cells were incubated overnight without or with a given compound in the presence of 5 μg/ml fluorescent labelled DiI-LDL (Alfa Aesar, Cat. #J65330) and co-stained for LDLR if applicable, as described (Poirier et al., J Biol Chem. 2009; 284(42):28856-28864). Immunofluorescence analyses were performed with an Olympus FluoView FV10i confocal microscope.

Going from `O=C(Cn1[nH]c(=O)c2ccccc2c1=O)Nc1ccc(N2C(=O)c3cccc4cccc(c34)C2=O)cc1` [Compound 4, 2-(1,4-dioxo-1,2,3,4-tetrahydrophthalazin-2-yl)-N-(4-{2,4-dioxo-3-azatricyclo[7.3.1.0^{5,13}]trideca-1(13),5,7,9,11-pentaen-3-yl}phenyl)acetamide] to `Cc1ccc(-c2nnc(N3CCN(C(=O)CN4C(=O)c5ccccc5C4=O)CC3)c3ccccc23)cc1` [Compound 36, 2-(2-{4-[4-(4-methylphenyl)phthalazin-1-yl]piperazin-1-yl}-2-oxoethyl)-2,3-dihydro-1H-isoindole-1,3-dione], the “LDLR Fold (relative LDLR protein levels)” value falls from 1.6 ± 0.2 Fold to 0.8 Fold.

`CC(=O)N1CCC2(CC1)CC(=O)c1ccc(OCC(=O)N3CCc4ccccc43)cc1O2` [Compound 6, 1′-acetyl-7-[2-(2,3-dihydro-1H-indol-1-yl)-2-oxoethoxy]-3,4-dihydrospiro[1-benzopyran-2,4′-piperidin]-4-one] and `Cc1cccc(C2c3[nH]c4ccccc4c3CCN2C(=O)CCCN2CCCCC2=O)n1` (stereo not drawn) [Compound 28, 1-{4-[1-(6-methylpyridin-2-yl)-1H,2H,3H,4H,9H-pyrido[3,4-b]indol-2-yl]-4-oxobutyl}piperidin-2-one] are within error of each other in “LDLR Fold (relative LDLR protein levels)” value: 0.8 ± 0.3 Fold for the first, 1.0 Fold for the second.

First: O=C(c1cn(CCN2CCCCC2)nn1)N1CCC2(C=Cc3ccccc32)CC1 [Compound 9, 1′-{1-[2-(piperidin-1-yl)ethyl]-1H-1,2,3-triazole-4-carbonyl}spiro[indene-1,4′-piperidine]]
Second: O=C(CN1CCN(c2nnc(-c3ccccc3)c3ccccc23)CC1)N1CCCC1 [Compound 35, 2-[4-(4-phenylphthalazin-1-yl)piperazin-1-yl]-1-(pyrrolidin-1-yl)ethan-1-one]
The “LDLR Fold (relative LDLR protein levels)” value of the first is lower: 0.4 ± 0.1 Fold for the first, 0.9 Fold for the second.

`CC1(c2ccc3ccccc3c2)NC(=O)N(CC(=O)N2CCCCC2c2nc3ccccc3s2)C1=O` (stereo not drawn) [Compound 11, 3-{2-[2-(1,3-benzothiazol-2-yl)piperidin-1-yl]-2-oxoethyl}-5-methyl-5-(naphthalen-2-yl)imidazolidine-2,4-dione] and `CC1(c2ccc3ccccc3c2)NC(=O)N(CC(=O)N2CCCC(c3nc4ccccc4s3)C2)C1=O` (stereo not drawn) [Compound 12, 3-{2-[3-(1,3-benzothiazol-2-yl)piperidin-1-yl]-2-oxoethyl}-5-methyl-5-(naphthalen-2-yl)imidazolidine-2,4-dione] are within error of each other in “LDLR Fold (relative LDLR protein levels)” value: 1.5 ± 0.4 Fold for the first, 1.8 ± 0.6 Fold for the second.

`CC1(c2ccc3ccccc3c2)NC(=O)N(CC(=O)N2CCC(c3nc4ccccc4s3)CC2)C1=O` (stereo not drawn) [Compound 13, 3-{2-[4-(1,3-benzothiazol-2-yl)piperidin-1-yl]-2-oxoethyl}-5-methyl-5-(naphthalen-2-yl)imidazolidine-2,4-dione] and `Cc1ccc(-c2cc(C(=O)N3CCc4c([nH]c5ccccc45)C3c3ccccn3)[nH]n2)s1` (stereo not drawn) [Compound 25, 2-{[3-(5-methyl-2-thienyl)-1H-pyrazol-5-yl]carbonyl}-1-(2-pyridinyl)-2,3,4,9-tetrahydro-1H-beta-carboline] are within error of each other in “LDLR Fold (relative LDLR protein levels)” value: 1.5 ± 0.7 Fold for the first, 1.1 Fold for the second.

Compared with `COc1ccccc1C1N=C(Nc2cccc(C)c2C)N=C2N=C(C)C=C(O)N21` (stereo not drawn) [Compound 32, 2-[(2,3-dimethylphenyl)amino]-4-(2-methoxyphenyl)-8-methyl-4H-pyrimido[1,2-a][1,3,5]triazin-6-ol], `COc1ccccc1[C@H]1N=C(N2CCN(c3cccc(Cl)c3)CC2)N=C2N=C(C)C=C(O)N21` [Compound 33, 2-[4-(3-chlorophenyl)piperazin-1-yl]-4-(2-methoxyphenyl)-8-methyl-1,4-dihydro-6H-pyrimido[1,2-a][1,3,5]triazin-6-ol] is higher in “LDLR Fold (relative LDLR protein levels)” value: 0.8 Fold for the first, 1.0 Fold for the second.
